Results taken from US20260265227A1, “AMIDE PRODRUGS AND USES THEREOF” (Autobahn Therapeutics, Inc., priority 2022, published 2026).

Target: T1, recombinant human FAAH (rhFAAH) (Homo sapiens, UniProt O00519)
T1 construct: purchased Cayman Chemical (Ann Arbor, MI, USA)
T1 sequence (O00519 1-579): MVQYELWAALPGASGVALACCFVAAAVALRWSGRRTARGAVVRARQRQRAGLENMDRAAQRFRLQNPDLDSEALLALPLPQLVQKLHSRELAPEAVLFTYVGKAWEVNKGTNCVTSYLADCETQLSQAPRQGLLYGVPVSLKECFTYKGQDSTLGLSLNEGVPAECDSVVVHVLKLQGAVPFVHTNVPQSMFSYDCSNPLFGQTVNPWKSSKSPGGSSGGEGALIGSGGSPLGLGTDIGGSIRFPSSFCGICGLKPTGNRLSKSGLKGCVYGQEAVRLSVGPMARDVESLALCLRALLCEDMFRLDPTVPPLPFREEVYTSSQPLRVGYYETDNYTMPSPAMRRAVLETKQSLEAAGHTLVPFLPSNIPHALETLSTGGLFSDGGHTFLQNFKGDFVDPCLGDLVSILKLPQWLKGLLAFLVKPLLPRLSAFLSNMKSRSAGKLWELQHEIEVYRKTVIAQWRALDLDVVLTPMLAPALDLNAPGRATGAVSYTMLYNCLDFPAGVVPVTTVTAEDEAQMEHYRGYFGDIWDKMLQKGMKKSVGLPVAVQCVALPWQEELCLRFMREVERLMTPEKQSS
Test: FAAH Substrate Evaluation (formation of acid metabolite from amide prodrug)
Assay type: biochemical
Conditions: 0.5 ng/μL rhFAAH, 1 μM test compound, Tris-EDTA buffer pH 8.0, 0.1% BSA, room temperature, 0-60 minutes, LC-MS/MS
Protocol: Purified recombinant human FAAH (rhFAAH) was purchased from Cayman Chemical (Ann Arbor, MI, USA). The total volume for each incubation was 400 μL containing a final 0.5 ng/μL rhFAAH, 1 μM test compound, 1.25% ethanol or 1 μM PF-3845 (FAAH inhibitor), and 0.1% bovine serum albumin in Tris-EDTA buffer at pH 8.0). The positive control was LL-341001. The incubation was conducted at the room temperature. At 0, 5, 15, 30 and 60 minutes, an aliquot of 30 μL reaction mixtures was removed and mixed with 300 μL acetonitrile containing 5 ng/mL terfenadine and 10 ng/ml tolbutamide as internal standards to quench the reaction. The resulting mixture was centrifuged at 4000 rpm, 4° C. for 15 minutes, and 100 μL supernatant was ready for LC-MS/MS analysis to measure the formation of acid metabolite.
Acquity Ultra Performance LC system from Waters was used for sample analysis. The chromatography was performed on a reverse phase Kinetex 2.6 μm C18 column, 2.1×30 mm, 100 Å. The mobile phase A comprised of 0.1% formic acid in water and mobile phase B comprised of 0.1% formic acid in acetonitrile with a 2-min run time at the flow rate of 0.8 mL/min for the acid metabolite from positive control or a 1.5 min run time at the flow rate of 0.9 mL/min for the acid metabolite of test compounds. The mass spectrometer (API-5500 and API Q Trap 4000 Applied Biosystems/MDS SCIEX Instruments, Framingham, MA, USA) was operated under ESI positive or negative ion MRM mode.
The formation of acid metabolite was monitored and quantified using one calibration point of 1 μM. The observed rate constant (ke) for the acid metabolite formation was calculated by plotting the metabolite concentration versus time of incubation with the slope being ke and is shown in Table 1.

| Structure (SMILES) | ke (observed rate constant for the acid metabolite formation) |
| --- | --- |
| C[C@H]1Cc2cc(OCCCC(F)(F)F)ccc2C=C1CN1CC(C(=O)N(C)CC(C)(C)C)C1 [Compound 9, (S)—N-methyl-1-((3-methyl-6-(4,4,4-trifluorobutoxy)-3,4-dihydronaphthalen-2-yl)methyl)-N-neopentylazetidine-3-carboxamide] | C (ke is 0) |
| C[C@H]1Cc2cc(OCCCC(F)(F)F)ccc2C=C1CN1CC(C(=O)NCCC(F)(F)F)C1 [Compound 25, (S)-1-((3-methyl-6-(4,4,4-trifluorobutoxy)-3,4-dihydronaphthalen-2-yl)methyl)-N-(3,3,3-trifluoropropyl) azetidine-3-carboxamide] | A (ke is more than or equal to 1.0) |
| C[C@H]1Cc2cc(OCCCC(F)(F)F)ccc2C=C1CN1CC(C(=O)Nc2ccnnc2)C1 [Compound 4, (S)-1-((3-methyl-6-(4,4,4-trifluorobutoxy)-3,4-dihydronaphthalen-2-yl)methyl)-N-(pyridazin-4-yl)azetidine-3-carboxamide] | A (ke is more than or equal to 1.0) |
| CC[C@H](C)NC(=O)C1CN(CC2=Cc3ccc(OCCCC(F)(F)F)cc3C[C@@H]2C)C1 [Compound 17, N—((S)-sec-butyl)-1-(((S)-3-methyl-6-(4,4,4-trifluorobutoxy)-3,4-dihydronaphthalen-2-yl)methyl)azetidine-3-carboxamide] | B (ke is less than 1.0 and more than 0) |
| C[C@H]1Cc2cc(OCCCC(F)(F)F)ccc2C=C1CN1CC(C(=O)Nc2cncnc2)C1 [Compound 3, (S)-1-((3-methyl-6-(4,4,4-trifluorobutoxy)-3,4-dihydronaphthalen-2-yl)methyl)-N-(pyrimidin-5-yl)azetidine-3-carboxamide] | A (ke is more than or equal to 1.0) |
| CC[C@@H](C)NC(=O)C1CN(CC2=Cc3ccc(OCCCC(F)(F)F)cc3C[C@@H]2C)C1 [Compound 8, N—((R)-sec-butyl)-1-(((S)-3-methyl-6-(4,4,4-trifluorobutoxy)-3,4-dihydronaphthalen-2-yl)methyl)azetidine-3-carboxamide] | A (ke is more than or equal to 1.0) |
| CCCN(C)C(=O)C1CN(CC2=Cc3ccc(OCCCC(F)(F)F)cc3C[C@@H]2C)C1 [Compound 16, (S)—N-methyl-1-((3-methyl-6-(4,4,4-trifluorobutoxy)-3,4-dihydronaphthalen-2-yl)methyl)-N-propylazetidine-3-carboxamide] | C (ke is 0) |
| C[C@H]1Cc2cc(OCCCC(F)(F)F)ccc2C=C1CN1CC(C(=O)NC2CC2)C1 [Compound 20, (S)—N-cyclopropyl-1-((3-methyl-6-(4,4,4-trifluorobutoxy)-3,4-dihydronaphthalen-2-yl)methyl)azetidine-3-carboxamide] | A (ke is more than or equal to 1.0) |
| COCCNC(=O)C1CN(CC2=Cc3ccc(OCCCC(F)(F)F)cc3C[C@@H]2C)C1 [Compound 5, (S)—N-(2-methoxyethyl)-1-((3-methyl-6-(4,4,4-trifluorobutoxy)-3,4-dihydronaphthalen-2-yl)methyl)azetidine-3-carboxamide] | A (ke is more than or equal to 1.0) |
| C[C@H]1Cc2cc(OCCCC(F)(F)F)ccc2C=C1CN1CC(C(=O)NCCCF)C1 [Compound 22, (S)-N-(3-fluoropropyl)-1-((3-methyl-6-(4,4,4-trifluorobutoxy)-3,4-dihydro-naphthalen-2-yl)methyl)azetidine-3-carboxamide] | B (ke is less than 1.0 and more than 0) |
| C[C@H]1Cc2cc(OCCCC(F)(F)F)ccc2C=C1CN1CC(C(=O)Nc2cccnc2)C1 [Compound 13, (S)-1-((3-methyl-6-(4,4,4-trifluorobutoxy)-3,4-dihydronaphthalen-2-yl)methyl)-N-(pyridin-3-yl)azetidine-3-carboxamide] | A (ke is more than or equal to 1.0) |
| CCCNC(=O)C1CN(CC2=Cc3ccc(OCCCC(F)(F)F)cc3C[C@@H]2C)C1 [Compound 10, (S)-1-((3-methyl-6-(4,4,4-trifluorobutoxy)-3,4-dihydronaphthalen-2-yl)methyl)-N-propylazetidine-3-carboxamide] | A (ke is more than or equal to 1.0) |
| C[C@H]1Cc2cc(OCCCC(F)(F)F)ccc2C=C1CN1CC(C(=O)N(C)C)C1 [Compound 11, (S)—N,N-dimethyl-1-((3-methyl-6-(4,4,4-trifluorobutoxy)-3,4-dihydronaphthalen-2-yl)methyl)azetidine-3-carboxamide] | B (ke is less than 1.0 and more than 0) |
| C[C@@H](O)CNC(=O)C1CN(CC2=Cc3ccc(OCCCC(F)(F)F)cc3C[C@@H]2C)C1 [Compound 21, N—((R)-2-hydroxypropyl)-1-(((S)-3-methyl-6-(4,4,4-trifluorobutoxy)-3,4-dihydronaphthalen-2-yl)methyl)azetidine-3-carboxamide] | B (ke is less than 1.0 and more than 0) |
| C[C@H](O)CNC(=O)C1CN(CC2=Cc3ccc(OCCCC(F)(F)F)cc3C[C@@H]2C)C1 [Compound 15, N—((S)-2-hydroxypropyl)-1-(((S)-3-methyl-6-(4,4,4-trifluorobutoxy)-3,4-dihydronaphthalen-2-yl)methyl)azetidine-3-carboxamide] | B (ke is less than 1.0 and more than 0) |
| COC[C@H](C)NC(=O)C1CN(CC2=Cc3ccc(OCCCC(F)(F)F)cc3C[C@@H]2C)C1 [Compound 18, N—((S)-1-methoxypropan-2-yl)-1-(((S)-3-methyl-6-(4,4,4-trifluorobutoxy)-3,4-dihydronaphthalen-2-yl)methyl)azetidine-3-carboxamide] | B (ke is less than 1.0 and more than 0) |
| CNC(=O)C1CN(CC2=Cc3ccc(OCCCC(F)(F)F)cc3C[C@@H]2C)C1 [Compound 12, (S)—N-methyl-1-((3-methyl-6-(4,4,4-trifluorobutoxy)-3,4-dihydronaphthalen-2-yl)methyl)azetidine-3-carboxamide] | B (ke is less than 1.0 and more than 0) |
| CC(C)CNC(=O)C1CN(CC2=Cc3ccc(OCCCC(F)(F)F)cc3C[C@@H]2C)C1 [Compound 7, (S)—N-isobutyl-1-((3-methyl-6-(4,4,4-trifluorobutoxy)-3,4-dihydronaphthalen-2-yl)methyl)azetidine-3-carboxamide] | A (ke is more than or equal to 1.0) |
| C[C@H]1Cc2cc(OCCCC(F)(F)F)ccc2C=C1CN1CC(C(=O)NCC(C)(C)C)C1 [Compound 6, (S)-1-((3-methyl-6-(4,4,4-trifluorobutoxy)-3,4-dihydronaphthalen-2-yl)methyl)-N-neopentylazetidine-3-carboxamide] | B (ke is less than 1.0 and more than 0) |
| C[C@@H](CO)NC(=O)C1CN(CC2=Cc3ccc(OCCCC(F)(F)F)cc3C[C@@H]2C)C1 [Compound 2, N—((S)-1-hydroxypropan-2-yl)-1-(((S)-3-methyl-6-(4,4,4-trifluorobutoxy)-3,4-dihydronaphthalen-2-yl)methyl)azetidine-3-carboxamide] | B (ke is less than 1.0 and more than 0) |
| C[C@H]1Cc2cc(OCCCC(F)(F)F)ccc2C=C1CN1CC(C(=O)Nc2ccncc2)C1 [Compound 24, (S)-1-((3-methyl-6-(4,4,4-trifluorobutoxy)-3,4-dihydronaphthalen-2-yl)methyl)-N-(pyridin-4-yl) azetidine-3-carboxamide] | A (ke is more than or equal to 1.0) |
| C[C@H]1Cc2cc(OCCCC(F)(F)F)ccc2C=C1CN1CC(C(=O)NCC2CC2)C1 [Compound 19, (S)—N-(cyclopropylmethyl)-1-((3-methyl-6-(4,4,4-trifluorobutoxy)-3,4-dihydronaphthalen-2-yl)methyl)azetidine-3-carboxamide] | A (ke is more than or equal to 1.0) |
